According to ChEMBL document CHEMBL1201862, “PubChem BioAssay data set” (2004):
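Results reflect a 48-hour exposure of cells in 96-well plates to compound at five concentrations. Abbreviation: GI50, concentration required for 50% inhibition of growth.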 Active and inactive are the calls of the source. No stated cut-off is given here; in the data, active = GI50 up to about 1.1 µM and inactive = higher.

How the values were obtained:
Test in all cases: NCI-60 cell line screen, 48 h
T47D = tested on: T47D
COLO 205 = tested on: COLO 205
PC-3 = tested on: PC-3
A498 = tested on: A498
SK-OV-3 = tested on: SK-OV-3
HL-60 = tested on: HL-60
RPMI-8226 = tested on: RPMI-8226
RXF 393 = tested on: RXF 393
SNB-75 = tested on: SNB-75
IGROV-1 = tested on: IGROV-1
HOP-62 = tested on: HOP-62
786-0 = tested on: 786-0
SK-MEL-5 = tested on: SK-MEL-5
NCI-H23 = tested on: NCI-H23
SK-MEL-2 = tested on: SK-MEL-2
HOP-92 = tested on: HOP-92
OVCAR-8 = tested on: OVCAR-8
DU-145 = tested on: DU-145
UACC-257 = tested on: UACC-257
CAKI-1 = tested on: CAKI-1
CCRF-CEM = tested on: CCRF-CEM
MOLT-4 = tested on: MOLT-4
SNB-19 = tested on: SNB-19
SR = tested on: SR
SF-295 = tested on: SF-295
MDA-MB-435 = tested on: MDA-MB-435
K562 = tested on: K562
SN12C = tested on: SN12C
BT-549 = tested on: BT-549
KM12 = tested on: KM12
OVCAR-4 = tested on: OVCAR-4
UACC-62 = tested on: UACC-62
UO-31 = tested on: UO-31
TK-10 = tested on: TK-10
LOX IMVI = tested on: LOX IMVI
Hs-578T = tested on: Hs-578T
ACHN = tested on: ACHN
NCI-H460 = tested on: NCI-H460
MDA-MB-231 = tested on: MDA-MB-231
OVCAR-3 = tested on: OVCAR-3
HCT-15 = tested on: HCT-15
Malme-3M = tested on: Malme-3M
NCI/ADR-RES = tested on: NCI/ADR-RES
MDA-N = tested on: MDA-N
SK-MEL-28 = tested on: SK-MEL-28
HT-29 = tested on: HT-29
MCF7 = tested on: MCF7
SW-620 = tested on: SW-620
OVCAR-5 = tested on: OVCAR-5
U-251 = tested on: U-251
SF-539 = tested on: SF-539
M14 = tested on: M14
SF-268 = tested on: SF-268
A549 = tested on: A549
NCI-H226 = tested on: NCI-H226
HCT-116 = tested on: HCT-116
NCI-H522 = tested on: NCI-H522
EKVX = tested on: EKVX
HCC 2998 = tested on: HCC 2998

N/N=C(/C=C1\C(=O)Nc2ccccc21)c1ccccc1
GI50 (T47D): 66.4 µM (inactive)
GI50 (COLO 205): 19.9 µM (inactive)
GI50 (PC-3): 20.3 µM (inactive)
GI50 (A498): 28.5 µM (inactive)
GI50 (SK-OV-3): 32.1 µM (inactive)
GI50 (HL-60): 3.8 µM (inactive)
GI50 (RPMI-8226): 21 µM (inactive)
GI50 (RXF 393): 20 µM (inactive)
GI50 (SNB-75): 18.7 µM (inactive)
GI50 (IGROV-1): 30.4 µM (inactive)
GI50 (HOP-62): 32.9 µM (inactive)
GI50 (786-0): 25.3 µM (inactive)
GI50 (SK-MEL-5): 10.5 µM (inactive)
GI50 (NCI-H23): 30.1 µM (inactive)
GI50 (SK-MEL-2): 61.8 µM (inactive)
GI50 (HOP-92): 24.5 µM (inactive)
GI50 (OVCAR-8): 24 µM (inactive)
GI50 (DU-145): 37.2 µM (inactive)
GI50 (UACC-257): 36.1 µM (inactive)
GI50 (CAKI-1): 24.3 µM (inactive)
GI50 (CCRF-CEM): 13.2 µM (inactive)
GI50 (MOLT-4): 19.7 µM (inactive)
GI50 (SNB-19): 27.6 µM (inactive)
GI50 (SR): 40.8 µM (inactive)
GI50 (SF-295): 21.4 µM (inactive)
GI50 (MDA-MB-435): 4.15 µM (inactive)
GI50 (K562): 5.45 µM (inactive)
GI50 (SN12C): 26.3 µM (inactive)
GI50 (BT-549): 15.4 µM (inactive)
GI50 (KM12): 11.1 µM (inactive)
GI50 (OVCAR-4): 58.7 µM (inactive)
GI50 (UACC-62): 24.6 µM (inactive)
GI50 (UO-31): 32.2 µM (inactive)
GI50 (TK-10): 42.8 µM (inactive)
GI50 (LOX IMVI): 22.2 µM (inactive)
GI50 (Hs-578T): 15.4 µM (inactive)
GI50 (ACHN): 45.1 µM (inactive)
GI50 (NCI-H460): 28.6 µM (inactive)
GI50 (MDA-MB-231): 20.3 µM (inactive)
GI50 (OVCAR-3): 18.2 µM (inactive)
GI50 (HCT-15): 8.43 µM
GI50 (Malme-3M): 23.5 µM (inactive)
GI50 (NCI/ADR-RES): 18.2 µM (inactive)
GI50 (MDA-N): 3.77 µM (inactive)
GI50 (SK-MEL-28): 26.7 µM (inactive)
GI50 (HT-29): 19.9 µM (inactive)
GI50 (MCF7): 18.9 µM (inactive)
GI50 (SW-620): 15.9 µM (inactive)
GI50 (OVCAR-5): 50.9 µM (inactive)
GI50 (U-251): 24.4 µM (inactive)
GI50 (SF-539): 18.7 µM (inactive)
GI50 (M14): 15.5 µM (inactive)
GI50 (SF-268): 55.6 µM (inactive)
GI50 (A549): 29.6 µM (inactive)
GI50 (NCI-H226): 45.8 µM (inactive)
GI50 (HCT-116): 15.3 µM (inactive)
GI50 (NCI-H522): 27.9 µM (inactive)
GI50 (EKVX): 32.9 µM (inactive)
GI50 (HCC 2998): 20 µM (inactive)

Cc1nnc(Sc2nc(C#N)c(C#N)nc2Sc2nnc(C)s2)s1
GI50 (T47D): 2.54 µM (inactive)
GI50 (COLO 205): 4.84 µM (inactive)
GI50 (PC-3): 14.8 µM (inactive)
GI50 (A498): 18.7 µM (inactive)
GI50 (SK-OV-3): 17.2 µM (inactive)
GI50 (HL-60): 2.72 µM (inactive)
GI50 (RPMI-8226): 2.5 µM (inactive)
GI50 (RXF 393): 1.92 µM (inactive)
GI50 (SNB-75): 28.6 µM (inactive)
GI50 (IGROV-1): 7.24 µM (inactive)
GI50 (HOP-62): 23.3 µM (inactive)
GI50 (786-0): 4.13 µM (inactive)
GI50 (SK-MEL-5): 20.6 µM (inactive)
GI50 (NCI-H23): 17.5 µM (inactive)
GI50 (SK-MEL-2): 18.4 µM (inactive)
GI50 (HOP-92): 2.14 µM (inactive)
GI50 (OVCAR-8): 2.47 µM (inactive)
GI50 (DU-145): 14.9 µM (inactive)
GI50 (UACC-257): 10.4 µM (inactive)
GI50 (CAKI-1): 2.32 µM (inactive)
GI50 (CCRF-CEM): 2.1 µM (inactive)
GI50 (MOLT-4): 2.25 µM (inactive)
GI50 (SNB-19): 22 µM (inactive)
GI50 (SR): 9.79 µM (inactive)
GI50 (SF-295): 22.8 µM (inactive)
GI50 (MDA-MB-435): 12.7 µM (inactive)
GI50 (K562): 3.48 µM (inactive)
GI50 (SN12C): 9.33 µM (inactive)
GI50 (BT-549): 5.61 µM (inactive)
GI50 (KM12): 23.8 µM (inactive)
GI50 (OVCAR-4): 13.4 µM (inactive)
GI50 (UACC-62): 17.2 µM (inactive)
GI50 (UO-31): 3.35 µM (inactive)
GI50 (TK-10): 11.1 µM (inactive)
GI50 (LOX IMVI): 2.72 µM (inactive)
GI50 (Hs-578T): 14.6 µM (inactive)
GI50 (ACHN): 2.93 µM (inactive)
GI50 (NCI-H460): 28.6 µM (inactive)
GI50 (MDA-MB-231): 15.9 µM (inactive)
GI50 (OVCAR-3): 6.32 µM (inactive)
GI50 (HCT-15): 2.6 µM
GI50 (Malme-3M): 0.139 µM (active)
GI50 (NCI/ADR-RES): 17.7 µM (inactive)
GI50 (MDA-N): 12.2 µM (inactive)
GI50 (SK-MEL-28): 10.5 µM (inactive)
GI50 (HT-29): 4.18 µM (inactive)
GI50 (MCF7): 5.82 µM (inactive)
GI50 (SW-620): 1.67 µM (inactive)
GI50 (OVCAR-5): 17.2 µM (inactive)
GI50 (U-251): 19.8 µM (inactive)
GI50 (SF-539): 12 µM (inactive)
GI50 (M14): 8.2 µM (inactive)
GI50 (SF-268): 23.6 µM (inactive)
GI50 (A549): 22.1 µM (inactive)
GI50 (NCI-H226): 20.8 µM (inactive)
GI50 (HCT-116): 10.3 µM (inactive)
GI50 (NCI-H522): 1.57 µM (inactive)
GI50 (EKVX): 19.3 µM (inactive)
GI50 (HCC 2998): 20 µM (inactive)

NC(CCC(=O)NC(CSCC1C(=O)Nc2ccccc21)C(=O)NCC(=O)O)C(=O)O (configuration not stated)
GI50 (T47D): 9.4 µM (inactive)
GI50 (COLO 205): 5.12 µM (inactive)
GI50 (PC-3): 21.6 µM (inactive)
GI50 (A498): 13.8 µM (inactive)
GI50 (SK-OV-3): 21 µM (inactive)
GI50 (HL-60): 23.6 µM (inactive)
GI50 (RPMI-8226): 2.02 µM (inactive)
GI50 (RXF 393): 0.855 µM (active)
GI50 (SNB-75): 2.67 µM (inactive)
GI50 (IGROV-1): 5.52 µM (inactive)
GI50 (HOP-62): 11.9 µM (inactive)
GI50 (786-0): 3.87 µM (inactive)
GI50 (SK-MEL-5): 14.8 µM (inactive)
GI50 (NCI-H23): 5.41 µM (inactive)
GI50 (SK-MEL-2): 9.53 µM (inactive)
GI50 (HOP-92): 4.16 µM (inactive)
GI50 (OVCAR-8): 6.15 µM (inactive)
GI50 (DU-145): 6.17 µM (inactive)
GI50 (UACC-257): 8.11 µM (inactive)
GI50 (CAKI-1): 4.41 µM (inactive)
GI50 (CCRF-CEM): 5.27 µM (inactive)
GI50 (MOLT-4): 5.35 µM (inactive)
GI50 (SNB-19): 44.3 µM (inactive)
GI50 (SR): 0.386 µM (active)
GI50 (SF-295): 15.5 µM (inactive)
GI50 (MDA-MB-435): 6.31 µM (inactive)
GI50 (K562): 1.6 µM (inactive)
GI50 (SN12C): 5.86 µM (inactive)
GI50 (BT-549): 6.79 µM (inactive)
GI50 (KM12): 9.82 µM (inactive)
GI50 (OVCAR-4): 8.41 µM (inactive)
GI50 (UACC-62): 8.32 µM (inactive)
GI50 (UO-31): 0.466 µM (active)
GI50 (TK-10): 7.52 µM (inactive)
GI50 (LOX IMVI): 1.21 µM (inactive)
GI50 (Hs-578T): 48 µM (inactive)
GI50 (ACHN): 7.41 µM (inactive)
GI50 (NCI-H460): 14.8 µM (inactive)
GI50 (MDA-MB-231): 7.53 µM (inactive)
GI50 (OVCAR-3): 5.62 µM (inactive)
GI50 (HCT-15): 4.72 µM
GI50 (Malme-3M): 6.3 µM (inactive)
GI50 (NCI/ADR-RES): 7.53 µM (inactive)
GI50 (MDA-N): 6.37 µM (inactive)
GI50 (SK-MEL-28): 6.58 µM (inactive)
GI50 (HT-29): 6.78 µM (inactive)
GI50 (MCF7): 3.75 µM (inactive)
GI50 (SW-620): 4.28 µM (inactive)
GI50 (OVCAR-5): 12.4 µM (inactive)
GI50 (U-251): 7.62 µM (inactive)
GI50 (SF-539): 6 µM (inactive)
GI50 (M14): 5.21 µM (inactive)
GI50 (SF-268): 5.92 µM (inactive)
GI50 (A549): 7.43 µM (inactive)
GI50 (NCI-H226): 7.23 µM (inactive)
GI50 (HCT-116): 4.89 µM (inactive)
GI50 (NCI-H522): 0.968 µM (active)
GI50 (EKVX): 11.9 µM (inactive)
GI50 (HCC 2998): 5.75 µM (inactive)
